From patent EP1285920A1, “C10 Ester sustituted taxanes as antitumor agents” (Florida State University Research Foundation, Inc., priority 2001, dated 2003)
pIC50: −log10 of the molar value.

What follows are compounds tested on HCT116 (assay: In Vitro cytotoxicity measured by the cell colony formation assay). Details: HCT116 colony formation; 72 h with drug, colonies counted after 7 days; ID50 = concentration producing 50% inhibition of colony formation; read-out: IN VITRO ID 50 HCT116.
Assay type: cell-based, human
Method: Four hundred cells (HCT116) were plated in 60 mm Petri dishes containing 2.7 mL of medium (modified McCoy's 5a medium containing 10% fetal bovine serum and 100 units/mL penicillin and […] streptomycin). The cells were incubated in a CO2 incubator at 37 °C for 5 h for attachment to the bottom of Petri dishes. The compounds identified in Example 2 were made up fresh in medium at ten times the final concentration, and then 0.3 mL of this stock solution was added to the 2.7 mL of medium in the dish. The cells were then incubated with drugs for 72 h at 37 °C. At the end of incubation the drug-containing media were decanted, the dishes were rinsed with 4 mL of Hank's Balance Salt Solution (HBSS), 5 mL of fresh medium was added, and the dishes were returned to the incubator for colony formation. The cell colonies were counted using a colony counter after incubation for 7 days.
With CC=CC(=O)OC1C(=O)C2(C)C(O)CC3OCC3(OC(C)=O)C2C(OC(=O)c2ccccc2)C2(O)CC(OC(=O)C(O)C(NC(=O)OC(C)(C)C)c3ccncc3)C(C)=C1C2(C)C (stereo not drawn) [Compound 2366] the pIC50 was over 9.00. For CC=CC(=O)OC1C(=O)C2(C)C(O)CC3OCC3(OC(C)=O)C2C(OC(=O)c2ccccc2)C2(O)CC(OC(=O)C(O)C(NC(=O)OC(C)(C)C)C(C)C)C(C)=C1C2(C)C (stereo not drawn) [Compound 2413], the pIC50 was over 8.00.

Same assay, conditions: Homo sapiens, HCT-116; read-out: IN VITRO ID 50 HCT116
Work on CC(=O)OC12COC1CC(O)C1(C)C(=O)C(OC(=O)C(C)C)C3=C(C)C(OC(=O)C(O)C(NC(=O)OC(C)(C)C)c4cccnc4)CC(O)(C(OC(=O)c4ccccc4)C21)C3(C)C (stereo not drawn) [Compound 2242] yielded a pIC50 of over 8.00. CCC(=O)O[C@H]1C(=O)[C@@]2(C)[C@H]([C@H](OC(=O)c3ccccc3)[C@]3(O)C[C@H](OC(=O)[C@H](O)[C@@H](NC(=O)c4ccccc4)c4cccnc4)C(C)=C1C3(C)C)[C@]1(OC(C)=O)CO[C@@H]1C[C@@H]2O [Compound 0647] showed a pIC50 of 7.92. CCCC(=O)O[C@H]1C(=O)[C@@]2(C)[C@H]([C@H](OC(=O)c3ccccc3)[C@]3(O)C[C@H](OC(=O)[C@H](O)[C@@H](NC(=O)OC(C)(C)C)c4ccncc4)C(C)=C1C3(C)C)[C@]1(OC(C)=O)CO[C@@H]1C[C@@H]2O [Compound 0978] gave a pIC50 of over 9.00. CC(=O)O[C@@]12CO[C@@H]1C[C@H](O)[C@@]1(C)C(=O)[C@H](OC(=O)c3cccs3)C3=C(C)[C@@H](OC(=O)[C@H](O)[C@@H](NC(=O)OC(C)(C)C)c4ccc([N+](=O)[O-])cc4)C[C@@](O)([C@@H](OC(=O)c4ccccc4)[C@H]21)C3(C)C [Compound 1911] showed a pIC50 of over 8.00. CC(=O)O[C@@]12CO[C@@H]1C[C@H](O)[C@@]1(C)C(=O)[C@H](OC(=O)C=C(C)C)C3=C(C)[C@@H](OC(=O)[C@H](O)[C@@H](NC(=O)OC(C)(C)C)c4cccs4)C[C@@](O)([C@@H](OC(=O)c4ccccc4)[C@H]21)C3(C)C [Compound 2503] showed a pIC50 of over 9.00. CC(=O)O[C@@]12CO[C@@H]1C[C@H](O)[C@@]1(C)C(=O)[C@H](OC(=O)c3cccs3)C3=C(C)[C@@H](OC(=O)[C@H](O)[C@@H](NC(=O)OC(C)(C)C)c4ccccn4)C[C@@](O)([C@@H](OC(=O)c4ccccc4)[C@H]21)C3(C)C [Compound 1883] was tested, and the pIC50 was over 8.00. CC(=O)O[C@@]12CO[C@@H]1C[C@H](O)[C@@]1(C)C(=O)[C@H](OC(=O)C3CC3)C3=C(C)[C@@H](OC(=O)[C@H](O)[C@@H](NC(=O)OC(C)(C)C)c4ccncc4)C[C@@](O)([C@@H](OC(=O)c4ccccc4)[C@H]21)C3(C)C [Compound 2813] showed a pIC50 of over 9.00. Work on CC(=O)O[C@@]12CO[C@@H]1C[C@H](O)[C@@]1(C)C(=O)[C@H](OC(=O)c3cccs3)C3=C(C)[C@@H](OC(=O)[C@H](O)[C@H](C=C(C)C)NC(=O)OC(C)(C)C)C[C@@](O)([C@@H](OC(=O)c4ccccc4)[C@H]21)C3(C)C [Compound 1879] yielded a pIC50 of over 8.00. Work on CCCC(=O)O[C@H]1C(=O)[C@@]2(C)[C@H]([C@H](OC(=O)c3ccccc3)[C@]3(O)C[C@H](OC(=O)[C@H](O)[C@@H](NC(=O)OCC(C)C)c4cccs4)C(C)=C1C3(C)C)[C@]1(OC(C)=O)CO[C@@H]1C[C@@H]2O [Compound 3265] yielded a pIC50 of over 8.00. CC=CC(=O)NC(c1ccoc1)C(O)C(=O)OC1CC2(O)C(OC(=O)c3ccccc3)C3C4(OC(C)=O)COC4CC(O)C3(C)C(=O)C(OC(=O)C3CC3)C(=C1C)C2(C)C (stereo not drawn) [Compound 4944] gave a pIC50 of over 9.00. In the case of CC(=O)O[C@@]12CO[C@@H]1C[C@H](O)[C@@]1(C)C(=O)[C@H](OC(=O)C3CC3)C3=C(C)[C@@H](OC(=O)[C@H](O)[C@@H](NC(=O)OCC(C)C)c4cccs4)C[C@@](O)([C@@H](OC(=O)c4ccccc4)[C@H]21)C3(C)C [Compound 3129], the pIC50 was over 8.00. With CC(=O)O[C@@]12CO[C@@H]1C[C@H](O)[C@@]1(C)C(=O)[C@H](OC(=O)C3CC3)C3=C(C)[C@@H](OC(=O)[C@H](O)[C@@H](NC(=O)c4ccccc4)c4ccsc4)C[C@@](O)([C@@H](OC(=O)c4ccccc4)[C@H]21)C3(C)C [Compound 2838] the pIC50 was over 9.00. CCCC(=O)O[C@H]1C(=O)[C@@]2(C)[C@H]([C@H](OC(=O)c3ccccc3)[C@]3(O)C[C@H](OC(=O)[C@H](O)[C@@H](NC(=O)OCC(C)C)c4ccsc4)C(C)=C1C3(C)C)[C@]1(OC(C)=O)CO[C@@H]1C[C@@H]2O [Compound 4834] was tested, and the pIC50 was over 8.00. Compound CCC(=O)O[C@H]1C(=O)[C@@]2(C)[C@H]([C@H](OC(=O)c3ccccc3)[C@]3(O)C[C@H](OC(=O)[C@H](O)[C@@H](NC(=O)c4ccccc4)c4ccncc4)C(C)=C1C3(C)C)[C@]1(OC(C)=O)CO[C@@H]1C[C@@H]2O [Compound 0659] has a pIC50 of over 9.00. CC(=O)O[C@@]12CO[C@@H]1C[C@H](O)[C@@]1(C)C(=O)[C@H](OC(=O)C3CC3)C3=C(C)[C@@H](OC(=O)[C@H](O)[C@@H](NC(=O)c4ccccc4)c4ccoc4)C[C@@](O)([C@@H](OC(=O)c4ccccc4)[C@H]21)C3(C)C [Compound 2826] gave a pIC50 of over 9.00. CC(=O)O[C@@]12CO[C@@H]1C[C@H](O)[C@@]1(C)C(=O)[C@H](OC(=O)c3ccco3)C3=C(C)[C@@H](OC(=O)[C@H](O)[C@@H](NC(=O)OC(C)(C)C)c4ccco4)C[C@@](O)([C@@H](OC(=O)c4ccccc4)[C@H]21)C3(C)C [Compound 2142] was tested, and the pIC50 was over 9.00. CCC(=O)O[C@H]1C(=O)[C@@]2(C)[C@H]([C@H](OC(=O)c3ccccc3)[C@]3(O)C[C@H](OC(=O)[C@H](O)[C@@H](NC(=O)c4cccs4)c4ccco4)C(C)=C1C3(C)C)[C@]1(OC(C)=O)CO[C@@H]1C[C@@H]2O [Compound 3644] gave a pIC50 of over 9.00. CC(=O)O[C@@]12CO[C@@H]1C[C@H](O)[C@@]1(C)C(=O)[C@H](OC(=O)C3CC3)C3=C(C)[C@@H](OC(=O)[C@H](O)[C@H](C=C(C)C)NC(=O)c4ccccc4)C[C@@](O)([C@@H](OC(=O)c4ccccc4)[C@H]21)C3(C)C [Compound 0890] showed a pIC50 of over 9.00. CC(=O)OC12COC1CC(O)C1(C)C(=O)C(OC(=O)C(C)C)C3=C(C)C(OC(=O)C(O)C(NC(=O)OC(C)(C)C)c4ccoc4)CC(O)(C(OC(=O)c4ccccc4)C21)C3(C)C (stereo not drawn) [Compound 2273] gave a pIC50 of over 9.00. Compound CCOC(=O)N[C@@H](c1ccco1)[C@@H](O)C(=O)O[C@H]1C[C@@]2(O)[C@@H](OC(=O)c3ccccc3)[C@@H]3[C@]4(OC(C)=O)CO[C@@H]4C[C@H](O)[C@@]3(C)C(=O)[C@H](OC(=O)C3CC3)C(=C1C)C2(C)C [Compound 3677] has a pIC50 of over 9.00. CCCC(=O)O[C@H]1C(=O)[C@@]2(C)[C@H]([C@H](OC(=O)c3ccccc3)[C@]3(O)C[C@H](OC(=O)[C@H](O)[C@@H](NC(=O)C=C(C)C)c4cccs4)C(C)=C1C3(C)C)[C@]1(OC(C)=O)CO[C@@H]1C[C@@H]2O [Compound 4344] gave a pIC50 of over 9.00. CCC(=O)O[C@H]1C(=O)[C@@]2(C)[C@H]([C@H](OC(=O)c3ccccc3)[C@]3(O)C[C@H](OC(=O)[C@H](O)[C@@H](NC(=O)c4ccccc4)C(C)C)C(C)=C1C3(C)C)[C@]1(OC(C)=O)CO[C@@H]1C[C@@H]2O [Compound 0719] showed a pIC50 of over 8.00. In the case of CCC(=O)O[C@H]1C(=O)[C@@]2(C)[C@H]([C@H](OC(=O)c3ccccc3)[C@]3(O)C[C@H](OC(=O)[C@H](O)[C@@H](NC(=O)OC(C)(C)C)c4cccnc4)C(C)=C1C3(C)C)[C@]1(OC(C)=O)CO[C@@H]1C[C@@H]2O [Compound 0517], the pIC50 was over 8.00. Compound CCC(=O)O[C@H]1C(=O)[C@@]2(C)[C@H]([C@H](OC(=O)c3ccccc3)[C@]3(O)C[C@H](OC(=O)[C@H](O)[C@@H](NC(=O)OCC(C)C)c4ccsc4)C(C)=C1C3(C)C)[C@]1(OC(C)=O)CO[C@@H]1C[C@@H]2O [Compound 4711] has a pIC50 of over 8.00. With CC(=O)O[C@@]12CO[C@@H]1C[C@H](O)[C@@]1(C)C(=O)[C@H](OC(=O)C3CC3)C3=C(C)[C@@H](OC(=O)[C@H](O)[C@@H](NC(=O)c4ccco4)c4ccco4)C[C@@](O)([C@@H](OC(=O)c4ccccc4)[C@H]21)C3(C)C [Compound 3866] the pIC50 was over 9.00. CC(=O)O[C@@]12CO[C@@H]1C[C@H](O)[C@@]1(C)C(=O)[C@H](OC(=O)C3CC3)C3=C(C)[C@@H](OC(=O)[C@H](O)[C@@H](NC(=O)OC(C)(C)C)C4CC4)C[C@@](O)([C@@H](OC(=O)c4ccccc4)[C@H]21)C3(C)C [Compound 0860] showed a pIC50 of over 9.00. CC(=O)O[C@@]12CO[C@@H]1C[C@H](O)[C@@]1(C)C(=O)[C@H](OC(=O)c3ccco3)C3=C(C)[C@@H](OC(=O)[C@H](O)[C@@H](NC(=O)OC(C)(C)C)C(C)C)C[C@@](O)([C@@H](OC(=O)c4ccccc4)[C@H]21)C3(C)C [Compound 2181] gave a pIC50 of over 8.00. CC(=O)O[C@@]12CO[C@@H]1C[C@H](O)[C@@]1(C)C(=O)[C@H](OC(=O)C3CC3)C3=C(C)[C@@H](OC(=O)[C@H](O)[C@H](C=C(C)C)NC(=O)OCC(C)C)C[C@@](O)([C@@H](OC(=O)c4ccccc4)[C@H]21)C3(C)C [Compound 4720] showed a pIC50 of over 8.00. For CC(=O)O[C@@]12CO[C@@H]1C[C@H](O)[C@@]1(C)C(=O)[C@H](OC(=O)C3CC3)C3=C(C)[C@@H](OC(=O)[C@H](O)[C@@H](NC(=O)c4ccccc4)c4ccccc4)C[C@@](O)([C@@H](OC(=O)c4ccccc4)[C@H]21)C3(C)C [Compound 0937], the pIC50 was over 8.00. With CC(=O)O[C@@]12CO[C@@H]1C[C@H](O)[C@@]1(C)C(=O)[C@H](OC(=O)C3CC3)C3=C(C)[C@@H](OC(=O)[C@H](O)[C@@H](NC(=O)OC(C)(C)C)c4ccsc4)C[C@@](O)([C@@H](OC(=O)c4ccccc4)[C@H]21)C3(C)C [Compound 2794] the pIC50 was over 9.00. For CC(=O)O[C@@]12CO[C@@H]1C[C@H](O)[C@@]1(C)C(=O)[C@H](OC(=O)c3ccco3)C3=C(C)[C@@H](OC(=O)[C@H](O)[C@@H](NC(=O)OC(C)(C)C)c4cccs4)C[C@@](O)([C@@H](OC(=O)c4ccccc4)[C@H]21)C3(C)C [Compound 2164], the pIC50 was over 9.00.
